Experimental data reported in ChEMBL document CHEMBL6092222 (J Med Chem, 2024).
Values after ≈ are worked out from the molar mass of the structure shown.

Experiments:
[1] = Solubility of compound at pH 7.4 by reversed-phase UPLC analysis; type: physicochemical; settings: buffer
[2] = Solubility of compound at pH 3 by reversed-phase UPLC analysis; type: physicochemical; settings: buffer
[3] = Oral bioavailability in Pentagastrine-pretreated Sprague-Dawley rat at 10 mg/kg measured for 24 hrs by UPLC-MS/MS analysis; type: ADME, organism-based; settings: in vivo
[4] = Oral bioavailability in rat; type: ADME, organism-based; settings: in vivo
[5] = AUC (total) in Famotidine-pretreated Sprague-Dawley rat at 10 mg/kg, po measured for 24 hrs by UPLC-MS/MS analysis; type: ADME, organism-based; settings: in vivo
[6] = AUC (total) in Sprague-Dawley rat at 10 mg/kg, po measured for 24 hrs by UPLC-MS/MS analysis; type: ADME, organism-based; settings: in vivo
[7] = Oral bioavailability in mouse; type: ADME, organism-based; settings: in vivo
[8] = Cmax in Pentagastrine-pretreated Sprague-Dawley rat at 10 mg/kg, po measured for 24 hrs by UPLC-MS/MS analysis; type: ADME, organism-based; settings: in vivo
[9] = Solubility of compound at pH 6.5 by reversed-phase UPLC analysis; type: physicochemical; settings: buffer
[10] = Solubility of compound at pH 5 by reversed-phase UPLC analysis; type: physicochemical; settings: buffer
physchem [11] = settings: aqueous buffer, pH 6.5
Description: Solubility of compound in aqueous buffer at pH 6.5 at 25 degreeC by reversed phase-HPLC analysis

[12] = Efflux ratio of apparent permeability across basal to apical side over apical to basal side in human Caco-2 cells; type: ADME, cell-based
physchem [13] = settings: aqueous buffer, pH 1
Description: Solubility of compound in aqueous buffer at pH 1 at 25 degreeC by reversed phase-HPLC analysis

[14] = Protein binding in human plasma assessed as free fraction; type: ADME, cell-free
[15] = Solubility of compound at pH 2 by reversed-phase UPLC analysis; type: physicochemical; settings: buffer
[16] = Cmax in Sprague-Dawley rat at 10 mg/kg, po measured for 24 hrs by UPLC-MS/MS analysis; type: ADME, organism-based; settings: in vivo
[17] = Solubility of compound in FaSSIF at pH 6.5 by reversed-phase UPLC analysis; type: physicochemical
[18] = Lipophilicity, logP of compound by HPLC analysis; type: physicochemical
[19] = Tmax in Pentagastrine-pretreated Sprague-Dawley rat at 10 mg/kg, po measured for 24 hrs by UPLC-MS/MS analysis; type: ADME, organism-based; settings: in vivo
[20] = Solubility of compound at pH 4 by reversed-phase UPLC analysis; type: physicochemical; settings: buffer
[21] = Oral bioavailability in mouse at 50 mg/kg administered as suspension; type: ADME, organism-based; settings: in vivo
[22] = Oral bioavailability in monkey; type: ADME, organism-based, Macaca mulatta; settings: rhesus monkey, in vivo
[23] = AUC (total) in Pentagastrine-pretreated Sprague-Dawley rat at 10 mg/kg, po measured for 24 hrs by UPLC-MS/MS analysis; type: ADME, organism-based; settings: in vivo
[24] = Protein binding in monkey plasma assessed as free fraction; type: ADME, cell-free, Macaca mulatta; settings: rhesus monkey
physchem [25] = settings: aqueous buffer, pH 4
Description: Solubility of compound in aqueous buffer at pH 4 at 25 degreeC by reversed phase-HPLC analysis

[26] = Solubility of compound in FeSSIF at pH 5 by reversed-phase UPLC analysis; type: physicochemical
[27] = Oral bioavailability in Sprague-Dawley rat at 10 mg/kg measured for 24 hrs by UPLC-MS/MS analysis; type: ADME, organism-based; settings: in vivo
[28] = Tmax in Famotidine-pretreated Sprague-Dawley rat at 10 mg/kg, po measured for 24 hrs by UPLC-MS/MS analysis; type: ADME, organism-based; settings: in vivo
[29] = Cmax in Famotidine-pretreated Sprague-Dawley rat at 10 mg/kg, po measured for 24 hrs by UPLC-MS/MS analysis; type: ADME, organism-based; settings: in vivo
[30] = Protein binding in rat plasma assessed as free fraction; type: ADME, cell-free
[31] = Solubility of compound at pH 1 by reversed-phase UPLC analysis; type: physicochemical; settings: buffer
[32] = Oral bioavailability in Famotidine-pretreated Sprague-Dawley rat at 10 mg/kg measured for 24 hrs by UPLC-MS/MS analysis; type: ADME, organism-based; settings: in vivo
[33] = Apparent permeability across apical to basal side in human Caco-2 cells; type: ADME, cell-based
[34] = Tmax in Sprague-Dawley rat at 10 mg/kg, po measured for 24 hrs by UPLC-MS/MS analysis; type: ADME, organism-based; settings: in vivo
[35] = Inhibition of STAT5 phosphorylation in IFN-gamma-treated human whole blood; type: tissue-based
[36] = Dissociation constant, pKa of compound; type: physicochemical
[37] = Permeability of compound by PAMPA; type: ADME; settings: read-out: permeability
[38] = Chemical stability of compound in acetate buffer at pH 4 at 37 degreeC assessed as half life measured for 24 hrs by reversed phase-HPLC analysis; type: physicochemical
[39] = Chemical stability of compound in 0.1 M HCl at pH 1 at 37 degreeC assessed as half life measured for 24 hrs by reversed phase-HPLC analysis; type: physicochemical
[40] = Chemical stability of compound in phosphate buffer at pH 6.5 at 37 degreeC assessed as half life measured for 24 hrs by reversed phase-HPLC analysis; type: physicochemical
[41] = Prodrug conversion in Famotidine-pretreated Sprague-Dawley rat assessed as AUC (total) of 6-(cyclopropanecarboxamido)-4-((2-methoxy-3-(2-methyl-2H-tetrazol-5-yl)phenyl)amino)-N-(methyl-d3)nicotinamide metabolite at 10 mg/kg, po measured for 24 hrs by UPLC-MS/MS analysis; type: ADME, organism-based; settings: in vivo
[42] = Prodrug conversion in Pentagastrine-pretreated Sprague-Dawley rat assessed as Tmax of 6-(cyclopropanecarboxamido)-4-((2-methoxy-3-(2-methyl-2H-tetrazol-5-yl)phenyl)amino)-N-(methyl-d3)nicotinamide metabolite at 10 mg/kg, po measured for 24 hrs by UPLC-MS/MS analysis; type: ADME, organism-based; settings: in vivo
[43] = Prodrug conversion in Famotidine-pretreated Sprague-Dawley rat assessed as Cmax of 6-(cyclopropanecarboxamido)-4-((2-methoxy-3-(2-methyl-2H-tetrazol-5-yl)phenyl)amino)-N-(methyl-d3)nicotinamide metabolite at 10 mg/kg, po measured for 24 hrs by UPLC-MS/MS analysis; type: ADME, organism-based; settings: in vivo
[44] = Prodrug conversion in Pentagastrine-pretreated Sprague-Dawley rat assessed as AUC (total) of 6-(cyclopropanecarboxamido)-4-((2-methoxy-3-(2-methyl-2H-tetrazol-5-yl)phenyl)amino)-N-(methyl-d3)nicotinamide metabolite at 10 mg/kg, po measured for 24 hrs by UPLC-MS/MS analysis; type: ADME, organism-based; settings: in vivo
[45] = Prodrug conversion in Pentagastrine-pretreated Sprague-Dawley rat assessed as Cmax of 6-(cyclopropanecarboxamido)-4-((2-methoxy-3-(2-methyl-2H-tetrazol-5-yl)phenyl)amino)-N-(methyl-d3)nicotinamide metabolite at 10 mg/kg, po measured for 24 hrs by UPLC-MS/MS analysis; type: ADME, organism-based; settings: in vivo
[46] = Prodrug conversion in Famotidine-pretreated Sprague-Dawley rat assessed as Tmax of 6-(cyclopropanecarboxamido)-4-((2-methoxy-3-(2-methyl-2H-tetrazol-5-yl)phenyl)amino)-N-(methyl-d3)nicotinamide metabolite at 10 mg/kg, po measured for 24 hrs by UPLC-MS/MS analysis; type: ADME, organism-based; settings: in vivo

## [2H]C([2H])([2H])NC(=O)c1cnc(NC(=O)C2CC2)cc1Nc1cccc(-c2nnn(C)n2)c1OC
[1]
  solubility: < 1 µg/mL
[2]
  solubility: 17 µg/mL (≈ 40 µM)
[3]
  bioavailability: 91%
[4]
  bioavailability: 50%
[5]
  AUC at 24 h: 7.8 µM·h
[6]
  AUC at 24 h: 18.4 µM·h
[7]
  bioavailability: 100%
[8]
  Cmax: 8.6 µM
[9]
  solubility: < 1 µg/mL
[10]
  solubility: < 1 µg/mL
Physchem [11]
  solubility: 1 µg/mL (≈ 2.35 µM)
[12]
  efflux ratio: 8.2
Physchem [13]
  solubility: 2020 µg/mL (≈ 4750 µM)
[14]
  fraction unbound: 0.1
[15]
  solubility: 1680 µg/mL (≈ 3950 µM)
[16]
  Cmax: 4.8 µM
[17]
  solubility: 8 µg/mL (≈ 18.8 µM)
[18]
  logP: 2.7
[19]
  Tmax: 0.9 h
[20]
  solubility: 5 µg/mL (≈ 11.8 µM)
[21]
  bioavailability: 63%
[22]
  bioavailability: 100%
[23]
  AUC at 24 h: 46 µM·h
[24]
  fraction unbound: 0.08
Physchem [25]
  solubility: 5 µg/mL (≈ 11.8 µM)
[26]
  solubility: 57 µg/mL (≈ 134 µM)
[27]
  bioavailability: 36%
[28]
  Tmax: 2.5 h
[29]
  Cmax: 0.77 µM
[30]
  fraction unbound: 0.07
[31]
  solubility: 2020 µg/mL (≈ 4750 µM)
[32]
  bioavailability: 15.4%
[33]
  Papp A→B: 6.7 ×10⁻⁶ cm/s
[34]
  Tmax: 1.1 h
[35]
  IC50: 23 nM
[36]
  pKa: 4.8
[37]
  Papp: ~60 ×10⁻⁶ cm/s

## [2H]C([2H])([2H])NC(=O)c1cn(COC(=O)c2ccc(OP(=O)(O)O)c(OC)c2)/c(=N/C(=O)C2CC2)cc1Nc1cccc(-c2nnn(C)n2)c1OC
[38]
  half-life: 215 h
Physchem [11]
  solubility: 1000 µg/mL (≈ 1460 µM)
Physchem [13]
  solubility: < 1 µg/mL
[39]
  half-life: > 500 h
Physchem [25]
  solubility: 58 µg/mL (≈ 84.6 µM)
[40]
  half-life: 84 h

## [2H]C([2H])([2H])NC(=O)c1cn(COP(=O)([O-])[O-])/c(=N/C(=O)C2CC2)cc1Nc1cccc(-c2nnn(C)n2)c1OC.[Na+].[Na+]
[41]
  AUC: 58 µM·h
[38]
  half-life: 376 h
[42]
  Tmax: 2.1 h
[43]
  Cmax: 8.1 µM
[44]
  AUC: 79 µM·h
[45]
  Cmax: 11.6 µM
Physchem [11]
  solubility: 1470 µg/mL
[46]
  Tmax: 2.5 h
Physchem [13]
  solubility: 10 µg/mL
[39]
  half-life: > 500 h
Physchem [25]
  solubility: 1 µg/mL
[40]
  half-life: 177 h

## NC(CO)(CO)CO.[2H]C([2H])([2H])NC(=O)c1cn(COP(=O)(O)O)/c(=N/C(=O)C2CC2)cc1Nc1cccc(-c2nnn(C)n2)c1OC
Physchem [11]
  solubility: 141 µg/mL
Physchem [13]
  solubility: 1 µg/mL
Physchem [25]
  solubility: 2 µg/mL

## Cl.[2H]C([2H])([2H])NC(=O)c1cnc(NC(=O)C2CC2)cc1Nc1cccc(-c2nnn(C)n2)c1OC
[5]
  AUC at 24 h: 5.5 µM·h
[8]
  Cmax: 7.1 µM
[19]
  Tmax: 5.5 h
[23]
  AUC at 24 h: 53.4 µM·h
[28]
  Tmax: 4 h
[29]
  Cmax: 0.8 µM

## [2H]C([2H])([2H])NC(=O)c1cn(COC(=O)c2ccc(COP(=O)(O)O)cc2)/c(=N/C(=O)C2CC2)cc1Nc1cccc(-c2nnn(C)n2)c1OC
[38]
  half-life: 334 h
Physchem [11]
  solubility: 1 µg/mL (≈ 1.49 µM)
Physchem [13]
  solubility: 1 µg/mL (≈ 1.49 µM)
[39]
  half-life: 334 h
[40]
  half-life: 130 h

## [2H]C([2H])([2H])N(COP(=O)([O-])[O-])C(=O)c1cnc(NC(=O)C2CC2)cc1Nc1cccc(-c2nnn(C)n2)c1OC.[Na+].[Na+]
[38]
  half-life: 0.7 h
Physchem [11]
  solubility: 2500 µg/mL
[40]
  half-life: 71.8 h

## NCCCC[C@H](N)C(=O)O.[2H]C([2H])([2H])NC(=O)c1cn(COP(=O)(O)O)/c(=N/C(=O)C2CC2)cc1Nc1cccc(-c2nnn(C)n2)c1OC
Physchem [11]
  solubility: 308 µg/mL
Physchem [13]
  solubility: 4 µg/mL
Physchem [25]
  solubility: 9 µg/mL

## CNCC(=O)OCc1cccnc1N(C)C(=O)OCn1cc(C(=O)NC)c(Nc2cccc(-c3nnn(C)n3)c2OC)c/c1=N\C(=O)C1CC1.Cl
[38]
  half-life: 72 h
Physchem [13]
  solubility: 650 µg/mL
[39]
  half-life: 334 h
Physchem [25]
  solubility: 580 µg/mL
[40]
  half-life: 5.7 h

## [2H]C([2H])([2H])NC(=O)c1cn(COC(=O)CC(C)(C)c2c(C)cc(C)cc2OP(=O)(O)O)/c(=N/C(=O)C2CC2)cc1Nc1cccc(-c2nnn(C)n2)c1OC
[38]
  half-life: 274 h
Physchem [13]
  solubility: 22 µg/mL (≈ 29.7 µM)
[39]
  half-life: 64 h
Physchem [25]
  solubility: 44 µg/mL (≈ 59.5 µM)
[40]
  half-life: 7.7 h
